This note sets out measurements from PubChem BioAssay AID180 (DTP/NCI, 2004).

The subject of the experiment is BDF1 mice, Adenocarcinoma 755 s.c., tumor weight T/C. The experiment is described as follows: NCI In Vivo Anticancer Drug Screen. Data for tumor model Adenocarcinoma 755 (subcutaneous) in B6D2F1 (BDF1) mice. Conditions: endpoint: mean tumor weight, schedule: Q01DX011 (ip), higher = larger tumour. On the procedure: The antitumor activity of compounds was measured in mice bearing transplantable tumors. Survival or tumor size were measured and the results are expressed as the measurement made in the treated group (T) divided by the measurement made in the vehicle treated control group (C). The tumor model used in this assay is Adenocarcinoma 755 (subcutaneous) in B6D2F1 (BDF1) mice

The mark [1] stands for this setting: dose: 20.0 mg/kg/injection, vehicle: methylcellulose (MC).
Where [2] appears, read: dose: 65.0 mg/kg/injection, vehicle: methylcellulose (MC).
The mark [3] stands for this setting: dose: 250.0 mg/kg/injection, vehicle: other.
[4] abbreviates: dose: 75.0 mg/kg/injection, vehicle: methylcellulose (MC).
The mark [5] stands for this setting: dose: 30.0 mg/kg/injection, vehicle: carboxymethylcellulose (CMC).

Structures are written as SMILES. Values joined by “and” are separate entries in the source; they are usually repeats but may differ in a detail not shown here. Equal values may be shown once.

In the case of `c1ccc2[nH]cnc2c1`, the T/C (commonly the ratio of treated to control) is 74 % of control (dose: 38.5 mg/kg/injection, vehicle: carboxymethylcellulose (CMC)); 93 % of control (dose: 40.0 mg/kg/injection, vehicle: carboxymethylcellulose (CMC)); 116 % of control (dose: 43.5 mg/kg/injection, vehicle: carboxymethylcellulose (CMC)); 60 % of control (dose: 62.5 mg/kg/injection, vehicle: methylcellulose (MC)); 62 % of control (dose: 77.0 mg/kg/injection, vehicle: carboxymethylcellulose (CMC)); 72 % of control (dose: 80.0 mg/kg/injection, vehicle: carboxymethylcellulose (CMC)). Besides, the T/C (dose: 87.0 mg/kg/injection, vehicle: carboxymethylcellulose (CMC)) was 110 % of control; the T/C (dose: 123.2 mg/kg/injection, vehicle: carboxymethylcellulose (CMC)) was 41 % of control and 57 % of control; the T/C (dose: 125.0 mg/kg/injection, vehicle: methylcellulose (MC)) is 88 % of control; the T/C (dose: 160.0 mg/kg/injection, vehicle: carboxymethylcellulose (CMC)) is 105 % of control; the T/C (dose: 174.0 mg/kg/injection, vehicle: carboxymethylcellulose (CMC)) was 101 % of control; the T/C (dose: 205.33 mg/kg/injection, vehicle: carboxymethylcellulose (CMC)) is 77 % of control and 82 % of control. In addition, the T/C is 118 % of control (dose: 250.0 mg/kg/injection, vehicle: methylcellulose (MC)); 123 % of control (dose: 320.0 mg/kg/injection, vehicle: carboxymethylcellulose (CMC)); 76 % of control (dose: 348.0 mg/kg/injection, vehicle: carboxymethylcellulose (CMC)).

Turning to `Fc1cccc(CSc2ncnc3c2ncn3C2CCCCO2)c1` (stereo not drawn), the T/C is 13 % of control under setting [1] and 1 % of control under setting [2].

On to `COc1ncnc2nc[nH]c12`, for which the T/C (dose: 62.0 mg/kg/injection, vehicle: other) was 107 % of control; the T/C (dose: 125.0 mg/kg/injection, vehicle: other) was 90 % of control; the T/C under setting [3] was 44 % of control.

Take `O=C(OCC1OC(n2cnc3c(=S)nc[nH]c32)C(OC(=O)c2ccc([N+](=O)[O-])cc2)C1OC(=O)c1ccc([N+](=O)[O-])cc1)c1ccc([N+](=O)[O-])cc1` (stereo not drawn): the T/C (dose: 6.25 mg/kg/injection, vehicle: other) is 70 % of control; the T/C (dose: 12.5 mg/kg/injection, vehicle: other) is 85 % of control; the T/C (dose: 25.0 mg/kg/injection, vehicle: other) was 58 % of control and 68 % of control; the T/C (dose: 50.0 mg/kg/injection, vehicle: other) is 52 % of control and 76 % of control; the T/C (dose: 75.0 mg/kg/injection, vehicle: other) was 8 % of control; the T/C (dose: 150.0 mg/kg/injection, vehicle: other) is 1 % of control. The T/C (dose: 200.0 mg/kg/injection, vehicle: other) was 1 % of control and 6 % of control; the T/C under setting [3] is 3 % of control.

Turning to `N[C@@H](Cc1ccc(N(CCCl)CCCl)cc1)C(=O)O`, the T/C is, setting by setting: (dose: 0.31 mg/kg/injection, vehicle: carboxymethylcellulose (CMC)) 66 % of control; (dose: 0.62 mg/kg/injection, vehicle: carboxymethylcellulose (CMC)) 101 % of control; (dose: 1.25 mg/kg/injection, vehicle: carboxymethylcellulose (CMC)) 59 % of control; (dose: 2.5 mg/kg/injection, vehicle: carboxymethylcellulose (CMC)) 29 % of control.

Take `CCC(C)Cn1cnc2c(Sc3c([N+](=O)[O-])ncn3C)nc(N)nc21` (stereo not drawn): the T/C runs as follows: (dose: 11.0 mg/kg/injection, vehicle: methylcellulose (MC)) 58 % of control; (dose: 33.0 mg/kg/injection, vehicle: methylcellulose (MC)) 10 % of control; (dose: 100.0 mg/kg/injection, vehicle: methylcellulose (MC)) 1 % of control.

Consider `CS(=O)(=O)OCC(=O)N1CCN(C(=O)COS(C)(=O)=O)CC1`, for which the T/C is 63 % of control (dose: 25.0 mg/kg/injection, vehicle: methylcellulose (MC)) and 67 % of control under setting [4].

On to `ClCCN(CCCl)c1ccc(/C=C\c2ccnc3ccccc23)cc1`, for which the T/C runs as follows: under setting [5], 65 % of control and 75 % of control; (dose: 115.0 mg/kg/injection, vehicle: carboxymethylcellulose (CMC)) 47 % of control and 69 % of control; (dose: 230.0 mg/kg/injection, vehicle: carboxymethylcellulose (CMC)) 71 % of control.

In the case of `OCC1CCC(n2cnc3c(=S)nc[nH]c32)C1` (stereo not drawn), the T/C is, setting by setting: (dose: 50.0 mg/kg/injection, vehicle: carboxymethylcellulose (CMC)) 89 % of control; (dose: 100.0 mg/kg/injection, vehicle: carboxymethylcellulose (CMC)) 88 % of control; (dose: 200.0 mg/kg/injection, vehicle: carboxymethylcellulose (CMC)) 48 % of control.

Regarding `CCC(C)Cn1cnc2c(SCc3ccccc3)nc(N)nc21` (stereo not drawn), the T/C reads like this: (dose: 37.5 mg/kg/injection, vehicle: carboxymethylcellulose (CMC)) 68 % of control; (dose: 75.0 mg/kg/injection, vehicle: carboxymethylcellulose (CMC)) 32 % of control; (dose: 150.0 mg/kg/injection, vehicle: carboxymethylcellulose (CMC)) 21 % of control; (dose: 300.0 mg/kg/injection, vehicle: carboxymethylcellulose (CMC)) 13 % of control.

For `CSc1nc(=O)cc2[nH]c(O)cn12`, the T/C under setting [5] was 90 % of control; the T/C (dose: 60.0 mg/kg/injection, vehicle: carboxymethylcellulose (CMC)) is 98 % of control; the T/C (dose: 120.0 mg/kg/injection, vehicle: carboxymethylcellulose (CMC)) was 50 % of control; the T/C (dose: 240.0 mg/kg/injection, vehicle: carboxymethylcellulose (CMC)) was 118 % of control.

As to `c1ccc2cc(SCCCN3CCOCC3)ccc2c1`, the T/C reads like this: (dose: 37.5 mg/kg/injection, vehicle: methylcellulose (MC)) 90 % of control and 107 % of control; (dose: 37.5 mg/kg/injection, vehicle: saline) 115 % of control; under setting [4], 103 % of control; (dose: 75.0 mg/kg/injection, vehicle: saline) 59 % of control; (dose: 150.0 mg/kg/injection, vehicle: methylcellulose (MC)) 70 % of control; (dose: 150.0 mg/kg/injection, vehicle: saline) 20 % of control.

Turning to `CC(=O)OCCOc1ccc(C(C)(C)C)cc1`, the T/C is 57 % of control (dose: 57.0 mg/kg/injection, vehicle: methylcellulose (MC)); 122 % of control (dose: 113.0 mg/kg/injection, vehicle: carboxymethylcellulose (CMC)); 83 % of control (dose: 113.0 mg/kg/injection, vehicle: methylcellulose (MC)); 171 % of control (dose: 225.0 mg/kg/injection, vehicle: carboxymethylcellulose (CMC)); 47 % of control (dose: 225.0 mg/kg/injection, vehicle: methylcellulose (MC)); 107 % of control (dose: 450.0 mg/kg/injection, vehicle: carboxymethylcellulose (CMC)). Besides, the T/C runs as follows: (dose: 500.0 mg/kg/injection, vehicle: carboxymethylcellulose (CMC)) 70 % of control; (dose: 600.0 mg/kg/injection, vehicle: carboxymethylcellulose (CMC)) 65 % of control.

For the compound `CCC(C)Cn1cnc2c(SCc3ccccc3F)nc(N)nc21` (stereo not drawn), the T/C reads like this: under setting [1], 64 % of control; under setting [2], 76 % of control; (dose: 200.0 mg/kg/injection, vehicle: methylcellulose (MC)) 30 % of control.
